Assay [1] addresses T1, human Cot catalytic domain (30-397 amino acids) (Homo sapiens, UniProt P41279).
T1 construct: Purified recombinant human Cot catalytic domain (30-397 amino acids) was purchased from Cama Biosciences; purchased Cama Biosciences (so in the source)
Nature of the assay: High Throughput Cot Biochemical Assay (KinEASE TR-FRET). As to conditions: read-out: IC50 HTRF. The gist of the method:
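TR-FRET readout: Eu-labeled phospho-specific antibody binds XL665-tagged STK3 peptide after phosphorylation by Cot (aa 30-397, 5 nM). Conditions: 400 μM ATP, 1 μM peptide, MOPS pH 7.0 buffer with MgOAc, DTT, BSA, NP-40, glycerol; 0.1% DMSO.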
A general note: TR-FRET usually uses a lanthanide donor and a delayed reading to cut background.

In assay [2] the test system is TNFα production in LPS-stimulated human monocytes. Nature of the assay: Cot Monocyte TNFα Cell Based Assay. As to conditions: Homo sapiens, Monocyte, read-out: EC50 TNF. The gist of the method: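 TR-FRET read-out of total secreted TNFα, normalized as % control (unstimulated = 0%, LPS-stimulated = 100%). Cells (5,000/well) were exposed to compound 1 h at 37 °C, then to 50 pg/ml LPS for a further 4 h.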

[3] abbreviates: Cot biochemical HTRF (KinEASE TR-FRET) assay.
The mark [4] stands for this setting: TNFα in LPS-stimulated human monocytes.
The mark [5] stands for this setting: Cot KinEASE TR-FRET, 400 μM ATP.
[6] abbreviates: LPS-stimulated human monocytes, TNFα TR-FRET.
Where [7] appears, read: Cot KinEASE TR-FRET (HTRF) biochemical assay, 400 μM ATP.

Where two headings read alike, the source gives them in different places.

T1 sequence (P41279 30-397): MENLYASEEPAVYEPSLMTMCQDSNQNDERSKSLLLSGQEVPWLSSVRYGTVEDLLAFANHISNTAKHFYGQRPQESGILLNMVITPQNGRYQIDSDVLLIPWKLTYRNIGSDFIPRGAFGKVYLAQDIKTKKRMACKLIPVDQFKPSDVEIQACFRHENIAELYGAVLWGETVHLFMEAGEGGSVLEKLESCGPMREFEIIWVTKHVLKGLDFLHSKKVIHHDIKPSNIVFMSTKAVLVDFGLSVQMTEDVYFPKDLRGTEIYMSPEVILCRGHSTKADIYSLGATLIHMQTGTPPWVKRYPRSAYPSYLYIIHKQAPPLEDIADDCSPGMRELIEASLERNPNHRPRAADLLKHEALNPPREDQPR

`CC(C)(C)N1CCC(n2cc([C@@H](Nc3cc(Cl)c4ncc(C#N)c(NC5CCCCCC5)c4c3)c3ccc(Cl)cc3)nn2)CC1` [Example 716, (S)-6-(((1-(1-(tert-butyl)piperidin-4-yl)-1H-1,2,3-triazol-4-yl)(4-chlorophenyl)methyl)amino)-8-chloro-4-(cycloheptylamino)quinoline-3-carbonitrile]: in assay [1] (setting [3]), the IC50 turned out to be 60 nM. Besides, the EC50 in assay [2] (setting [4]) was 847 nM.
On to `CCN1CCC(n2cc([C@H](Nc3cc(Cl)c4ncc(C#N)c(Nc5ccc(F)c(Cl)c5)c4c3)c3ccc(F)cc3)nn2)CC1` [Example 849, (R)-8-chloro-4-((3-chloro-4-fluorophenyl)amino)-6-(((1-(1-ethylpiperidin-4-yl)-1H-1,2,3-triazol-4-yl)(4-fluorophenyl)methyl)amino) quinoline-3-carbonitrile], for which the IC50 in assay [1] (setting [3]) stood at 687 nM. Also, in assay [2] (setting [4]), the EC50 was found to be 6280 nM.
As for `CC(C)n1cc([C@@H](Nc2cc(Cl)c3ncc(C#N)c(N[C@H](C)c4ccccc4)c3c2)c2cccc(C(=O)N(C)C)c2)nn1` [Example 579, 3-((S)-((8-chloro-3-cyano-4-(((R)-1-phenylethyl)amino)quinolin-6-yl)amino)(1-isopropyl-1H-1,2,3-triazol-4-yl)methyl)-N,N-dimethylbenzamide], the IC50 in assay [1] (setting [3]) was determined as 8 nM. Further, the EC50 in assay [2] (setting [4]) came to 713 nM.
The corresponding values for `N#Cc1cnc2c(Cl)cc(N[C@@H](c3ccccc3)c3cn([C@@H]4CCN(C5COC5)C[C@H]4O)nn3)cc2c1Nc1cccc(Cl)c1` [Example 517, 8-chloro-4-((3-chlorophenyl)amino)-6-(((S)-(1-((3R,4R)-3-hydroxy-1-(oxetan-3-yl)piperidin-4-yl)-1H-1,2,3-triazol-4-yl)(phenyl)methyl)amino) quinoline-3-carbonitrile] are 10 nM and 255 nM.
Turning to `Cc1c(-c2cnn(C)c2)cccc1[C@H](Nc1cc(Cl)c2ncc(C#N)c(NCC(C)(C)C)c2c1)c1cn(C2(C(F)F)CC2)nn1` [Example 1086, (S)-8-chloro-6-(((1-(1-(difluoromethyl)cyclopropyl)-1H-1,2,3-triazol-4-yl)(2-methyl-3-(1-methyl-1H-pyrazol-4-yl)phenyl)methyl)amino)-4-(neopentylamino)quinoline-3-carbonitrile], in assay [1] (setting [5]), the IC50 came to 4 nM. Besides, the concentration for a half-maximal effect (EC50) in assay [2] (setting [6]) worked out at 76 nM.
For the molecule `N#Cc1cnc2c(Cl)cc(N[C@@H](c3ccc(F)cc3)c3cn(C4CC4)nn3)cc2c1NC(CF)c1ccccc1` (stereo partly drawn) [Example 323, 8-chloro-6-(((S)-(1-cyclopropyl-1H-1,2,3-triazol-4-yl)(4-fluorophenyl)methyl)amino)-4-((2-fluoro-1-phenylethyl)amino)quinoline-3-carbonitrile], in assay [1] (setting [7]), the IC50 was 82 nM. In assay [2] (setting [4]), the concentration giving a half-maximal response (EC50) was 1600 nM.
Regarding `CC1(Cn2cc([C@@H](Nc3cc(Cl)c4ncc(C#N)c(Nc5cnc(F)c(F)c5)c4c3)c3ccc(F)cc3)nn2)CCC1` [Example 413], the IC50 in assay [1] (setting [3]) was 93 nM. In addition, the EC50 in assay [2] (setting [4]) stood at 2750 nM.
Regarding `[2H]C(Nc1cc(Cl)c2ncc(C#N)c(NC(CCC#N)c3ccccc3)c2c1)(c1cn(C2CC2)nn1)c1ccccc1Cl` (centres unmarked) [Example 87, 8-chloro-6-(((2-chlorophenyl) (1-cyclopropyl-1H-1,2,3-triazol-4-yl)methyl-d)amino)-4-((3-cyano-1-phenylpropyl)amino) quinoline-3-carbonitrile], the IC50 in assay [1] (setting [7]) is over 10000 nM. In assay [2] (setting [4]), the EC50 was over 1000 nM.
Regarding `CC[C@@H](Nc1c(C#N)cnc2c(Br)cc(N[C@@H](c3cccc(-c4ncco4)c3)c3cn(C4CC4)nn3)cc12)c1ccccc1` [Example 940, 8-bromo-6-(((S)-(1-cyclopropyl-1H-1,2,3-triazol-4-yl)(3-(oxazol-2-yl)phenyl)methyl)amino)-4-(((R)-1-phenylpropyl)amino) quinoline-3-carbonitrile], the IC50 in assay [1] (setting [5]) was determined as 4 nM. The EC50 in assay [2] (setting [6]) amounted to 144 nM.
With `[2H][C@](Nc1cc(Cl)c2ncc(C#N)c(NC34CC(C3)C4)c2c1)(c1ccc(F)cc1)c1cn(C2CC2)nn1` [Example 153, (S)-4-(bicyclo[1.1.1]pentan-1-ylamino)-8-chloro-6-(((1-cyclopropyl-1H-1,2,3-triazol-4-yl)(4-fluorophenyl)methyl-d)amino)quinoline-3-carbonitrile], the IC50 in assay [1] (setting [7]) amounted to 196 nM. Moreover, the EC50 in assay [2] (setting [4]) worked out at 892 nM.
As to `N#Cc1cnc2c(Cl)cc(N[C@@H](c3ccc(F)cc3)c3cn(C4CC4)nn3)cc2c1Nc1cnc(F)c(F)c1` [Example 456, (S)-8-chloro-6-(((1-cyclopropyl-1H-1,2,3-triazol-4-yl)(4-fluorophenyl)methyl)amino)-4-((5,6-difluoropyridin-3-yl)amino)quinoline-3-carbonitrile], the IC50 in assay [1] (setting [3]) came out at 7 nM. Also, in assay [2] (setting [4]), the EC50 is 305 nM.
In the case of `[2H][C@](Nc1cc(C(=O)N(C)C)c2ncc(C#N)c(NCC(C)(C)C)c2c1)(c1ccc(F)cc1)c1cn(C2CC2)nn1` [Example 138, (S)-3-cyano-6-(((1-cyclopropyl-1H-1,2,3-triazol-4-yl) (4-fluorophenyl)methyl-d)amino)-N,N-dimethyl-4-(neopentylamino) quinoline-8-carboxamide], the IC50 in assay [1] (setting [7]) was 139 nM. Moreover, the half-maximal effective concentration (EC50) in assay [2] (setting [4]) worked out at 1360 nM.
For `[2H][C@](Nc1cc(Cl)c2ncc(C#N)c(NC3(C(F)F)CC3)c2c1)(c1ccc(F)cc1)c1cn(C2CC2)nn1` [Example 967], the IC50 in assay [1] (setting [5]) was 714 nM. For the same molecule, in assay [2] (setting [6]), the EC50 was at least 1000 nM.
As to `Cc1c(-c2ncco2)cccc1[C@H](Nc1cc(Cl)c2ncc(C#N)c(NCC(C)(C)C)c2c1)c1cn(C2(C(F)F)CC2)nn1` [Example 1051, (S)-8-chloro-6-(((1-(1-(difluoromethyl)cyclopropyl)-1H-1,2,3-triazol-4-yl)(2-methyl-3-(oxazol-2-yl)phenyl)methyl)amino)-4-(neopentylamino)quinoline-3-carbonitrile], the IC50 in assay [1] (setting [5]) is 4 nM. Moreover, in assay [2] (setting [6]), the concentration for a half-maximal effect (EC50) worked out at 163 nM.
`CC1(Nc2c(C#N)cnc3c(Cl)cc(N[C@@H](c4ccc(Cl)cc4)c4cn(C5CCN(C(C)(C)C)CC5)nn4)cc23)CCCCC1` [Example 663, (S)-6-(((1-(1-(tert-butyl)piperidin-4-yl)-1H-1,2,3-triazol-4-yl)(4-chlorophenyl)methyl)amino)-8-chloro-4-((1-methylcyclohexyl)amino) quinoline-3-carbonitrile]: in assay [1] (setting [3]), the IC50 was determined as 72 nM. In addition, the EC50 in assay [2] (setting [4]) worked out at 4740 nM.
With `CC(C)(C)CNc1c(C#N)cnc2c(C#N)cc(N[C@H](c3cn(C4CC4)nn3)c3ccccc3Cl)cc12` [Example 211, (S)-6-(((2-chlorophenyl)(1-cyclopropyl-1H-1,2,3-triazol-4-yl)methyl)amino)-4-(neopentylamino) quinoline-3,8-dicarbonitrile], the IC50 in assay [1] (setting [7]) was 6 nM. In assay [2] (setting [4]), the EC50 was 173 nM.
`N#Cc1cnc2c(Cl)cc(N[C@@H](c3cccc(-c4ncco4)c3)c3cn(C4COC4)nn3)cc2c1Nc1cnc(F)c(F)c1` [Example 499, (S)-8-chloro-4-((5,6-difluoropyridin-3-yl)amino)-6-(((3-(oxazol-2-yl)phenyl) (1-(oxetan-3-yl)-1H-1,2,3-triazol-4-yl)methyl)amino)quinoline-3-carbonitrile]: the half-inhibitory concentration (IC50) in assay [1] (setting [3]) was determined as 6 nM. Also, the 50% effective concentration (EC50) in assay [2] (setting [4]) was found to be 985 nM.
Take `[2H][C@](Nc1cc(Cl)c2ncc(C#N)c(N)c2c1)(c1ccc(F)cc1)c1cn(C2CC2)nn1` [Example 279, 4-amino-8-chloro-6-(((S)-(1-cyclopropyl-1H-1,2,3-triazol-4-yl)(4-fluorophenyl)methyl-d)amino)quinoline-3-carbonitrile]: the IC50 in assay [1] (setting [7]) worked out at 3050 nM. Besides, the EC50 in assay [2] (setting [4]) is 8200 nM.
Regarding `N#Cc1cnc2c(Cl)cc(N[C@@H](c3ccc(Cl)cc3)c3c[nH]nn3)cc2c1Nc1ccc2c(cnn2Cc2ccccc2)c1` [Example 638, (S)-4-((1-benzyl-1H-indazol-5-yl)amino)-8-chloro-6-(((4-chlorophenyl)(1H-1,2,3-triazol-4-yl)methyl)amino)quinoline-3-carbonitrile], the IC50 in assay [1] (setting [3]) was over 10000 nM. Moreover, the EC50 in assay [2] (setting [4]) is 2650 nM.
As for `[2H][C@](Nc1cc(Cl)c2ncc(C#N)c(NCC(C)(C)CCl)c2c1)(c1ccc(F)cc1)c1cn(C2CC2)nn1` [Example 192, (S)-8-chloro-4-((3-chloro-2,2-dimethylpropyl)amino)-6-(((1-cyclopropyl-1H-1,2,3-triazol-4-yl)(4-fluorophenyl)methyl-d)amino)quinoline-3-carbonitrile], in assay [1] (setting [7]), the IC50 stood at 3 nM. Further, the EC50 in assay [2] (setting [4]) came to 107 nM.
Consider `CN(C)C(=O)c1cccc([C@H](Nc2cc(Cl)c3ncc(C#N)c(NCC(C)(C)C)c3c2)c2cn(C3(C(F)(F)F)CC3)nn2)c1F` [Example 1113, (S)-3-(((8-chloro-3-cyano-4-(neopentylamino)quinolin-6-yl)amino)(1-(1-(trifluoromethyl)cyclopropyl)-1H-1,2,3-triazol-4-yl)methyl)-2-fluoro-N,N-dimethylbenzamide], for which the IC50 in assay [1] (setting [5]) is 22 nM. Moreover, the EC50 in assay [2] (setting [6]) amounted to 444 nM.
`CC(C)(C)CNc1c(C#N)cnc2c(Cl)cc(N[C@@H](c3ccc(F)cc3)c3c[nH]nn3)cc12` [Example 400, (S)-8-chloro-6-(((4-fluorophenyl)(1H-1,2,3-triazol-4-yl)methyl)amino)-4-(neopentylamino) quinoline-3-carbonitrile]: the IC50 in assay [1] (setting [7]) came out at 47 nM. Also, the half-maximal effective concentration (EC50) in assay [2] (setting [4]) worked out at 1230 nM.

For orientation: IC50 means the midpoint of a concentration-inhibition curve. As a reminder, the EC50 is the midpoint of the concentration-response curve.

(Values after patent publication US10316017B2, “COT modulators and methods of use thereof” (Gilead Sciences, Inc., priority 2015, dated 2019).)
